In patent US20030152953A1, “Polynucleotide encoding a novel human potassium channel alpha-subunit, K+alphaM2” (priority 2001, published 2003):
Where two headings read alike, the source gives them in different places.

What was measured:
Kv2.2 = target: T1, Kv2.2 (UniProt Q92953); details: cited from earlier work; for IC50: read-out: IC50, inhibition of Kv2.2 current
T1 sequence (Q92953 1-911): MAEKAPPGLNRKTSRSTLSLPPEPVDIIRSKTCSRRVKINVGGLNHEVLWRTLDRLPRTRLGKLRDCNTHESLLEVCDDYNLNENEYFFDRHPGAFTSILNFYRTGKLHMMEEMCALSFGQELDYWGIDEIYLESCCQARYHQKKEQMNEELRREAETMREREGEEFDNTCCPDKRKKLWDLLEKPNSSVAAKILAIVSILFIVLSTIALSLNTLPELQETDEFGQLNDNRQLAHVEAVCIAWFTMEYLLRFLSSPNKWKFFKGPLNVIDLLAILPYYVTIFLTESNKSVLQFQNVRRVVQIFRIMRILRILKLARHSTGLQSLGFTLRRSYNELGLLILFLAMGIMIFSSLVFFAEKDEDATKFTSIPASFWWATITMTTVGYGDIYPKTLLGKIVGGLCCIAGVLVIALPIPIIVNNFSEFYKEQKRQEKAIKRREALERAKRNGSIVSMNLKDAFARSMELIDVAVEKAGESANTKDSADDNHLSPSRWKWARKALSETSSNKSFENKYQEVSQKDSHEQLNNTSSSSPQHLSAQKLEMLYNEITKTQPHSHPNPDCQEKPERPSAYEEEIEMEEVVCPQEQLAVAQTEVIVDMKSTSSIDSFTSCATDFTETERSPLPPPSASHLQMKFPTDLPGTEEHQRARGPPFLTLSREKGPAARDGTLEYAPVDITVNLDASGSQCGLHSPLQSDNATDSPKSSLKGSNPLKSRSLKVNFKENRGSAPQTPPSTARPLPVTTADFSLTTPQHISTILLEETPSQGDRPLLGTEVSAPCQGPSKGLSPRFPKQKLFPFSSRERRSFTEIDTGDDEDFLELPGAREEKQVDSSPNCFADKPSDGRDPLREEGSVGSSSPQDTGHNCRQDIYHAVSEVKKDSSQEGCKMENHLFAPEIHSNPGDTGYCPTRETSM

[1] = system: slow component of the delayed rectifier current in native colonic myocytes; details: 1 microM; cited from earlier work
Kv2.1 = Kv2.1 alone; cited from earlier work
Kv2.1/Kv9.1 = details: cited from earlier work
[2] = system: nigral dopaminergic neurons; details: tissue culture paradigms; cited from earlier work
[3] = system: nigral dopaminergic neurons; details: gel foam implants in the striatum; cited from earlier work
Human lung fibroblasts = assay: Human lung fibroblast growth, Alamar Blue; format: cell-based; details: 3 days in basal medium
Procedure: Human lung fibroblasts are obtained from Clonetics (San Diego, Calif.) and maintained in growth media from Clonetics. Dermal microvascular endothelial cells are obtained from Cell Applications (San Diego, Calif.). For proliferation assays, the human lung fibroblasts and dermal microvascular endothelial cells can be cultured at 5,000 cells/well in a 96-well plate for one day in growth medium. The cells are then incubated for one day in 0.1% BSA basal medium. After replacing the medium with fresh 0.1% BSA medium, the cells are incubated with the test proteins for 3 days. Alamar Blue (Alamar Biosciences, Sacramento, Calif.) is added to each well to a final concentration of 10%. The cells are incubated for 4 hr. Cell viability is measured by reading in a CytoFluor fluorescence reader. For the PGE2 assays, the human lung fibroblasts are cultured at 5,000 cells/well in a 96-well plate for one day. […]

[4] = system: cortical or hippocampal neurons; details: in vitro; cited from earlier work
[5] = Xenopus oocytes injected with Kv2.2 mRNA

Question: With C=C[C@H]1C[N@@]2CC[C@H]1C[C@H]2[C@H](O)c1ccnc2ccc(OC)cc12 [quinine] as the compound, how does the IC50 (Kv2.2; [5]) read?
Answer: 0.0137 mM

Question: What about the “block of delayed rectifier current” value [1] of the same compound?
Answer: preferentially block the slow component of the delayed rectifier current

Question: What does the source list for CC[N+](CC)(CC)CC [tetraethylammonium]?
Answer: IC50 (Kv2.2): 2.6 mM; sensitivity of currents to blocker (Kv2.1): sensitive; effect on biphasic voltage-dependence of currents (Kv2.1/Kv9.1; 20 mM): eliminate the biphasic voltage-dependence; sensitivity of currents to blocker (Kv2.1/Kv9.1; Kv2.1/Kv9.1): sensitive

Question: With “FGF-2: FGF-2 (basic FGF), fibroblast growth factor” as the compound, how does the “activity towards nigral dopaminergic neurons” value [2] read?
Answer: trophic activity

Question: What about the “protection of nigral dopaminergic neurons from MPTP toxicity” value [3] of the same compound?
Answer: near complete protection

Question: And the “concentration showing stimulation of fibroblast growth” value (Human lung fibroblasts)?
Answer: 10 to 2500 ng/mL

Question: And the neurite outgrowth [4]?
Answer: increases

Question: And the neuron survival [4]?
Answer: increases

Question: For charybdotoxin, which “sensitivity of Kv2.2 current” value (Kv2.2; [5]) is on record?
Answer: insensitive
